Test results from patent US20260028340A1 (Supernus Pharmaceuticals, Inc., priority 2023, published 2026).

Assay: Pharmacokinetic data in CD-1 mice after oral administration
Format: in vivo
Conditions: 10 mg/kg molar equivalent to Cmpd. A (nominal), serum, analyte: A
Experimental: Pharmacokinetic (PK) data was generated using twelve CD-1 mice treated with oral administration of the compound with a dose volume of 10 mg/kg (a molar equivalent to 5-(4-chlorophenyl)-2,3-dihydroimidazo[1,2-b]isoindol-5-ol (“Compound A,” “Cmpd. A,” or “A”)), and a nominal strength of 1 mg/mL. The serum was analyzed in triplicate with 200 mM K2EDTA anticoagulant.

Compound | PK parameters / level of analyte A (Cmpd. A) after dosing the derivative
O=C(c1ccc(Cl)cc1)c1ccccc1C1=NCCN1C(=O)c1ccc2c(c1)OCO2 [II-4, benzo[d][1.3]dioxol-5-yl(2-(2-(4-chlorobenzoyl)phenyl)-4,5-dihydro-1H-imidazol-1-yl) methanone] | NC (BLQ at all the time points)
CC(C)C(NC(=O)OC(C)(C)C)C(=O)N1CCN=C1c1ccccc1C(=O)c1ccc(Cl)cc1 (stereo not shown) | NC (BLQ at all the time points)
CC(C)(C(=O)N1CCN=C1c1ccccc1C(=O)c1ccc(Cl)cc1)C(=O)N1CCN=C1c1ccccc1C(=O)c1ccc(Cl)cc1 [III-1, 1,3-bis(2-(2-(4-chlorobenzoyl)phenyl)-4,5-dihydro-1H-imidazol-1-yl)-2,2-dimethylpropane-1,3-dione] | NC (BLQ at all the time points)

Same assay, conditions: mouse, 10 mg/kg molar equivalent to Cmpd. A (nominal), serum, analyte: dosed derivative (DV)

Compound | AUC(0-inf) [ng·h/mL] | AUC(0-t) [ng·h/mL] | Cmax [ng/mL] | Tmax [min] | half-life [min]
CCOC1(c2ccc(Cl)cc2)c2ccccc2C2=NCCN21 (stereo not shown) [Compound I-8, 5-(4-chlorophenyl)-5-ethoxy-2,5-dihydro-3H-imidazo[2,1-a]isoindole] | 72.4 | 48.5 | 32 | 30 | 127
CC(C)=CCC/C(C)=C/CC/C(C)=C/COC1(c2ccc(Cl)cc2)c2ccccc2C2=NCCN21 (stereo not shown) [Compound I-13, 5-(4-chlorophenyl)-5-(((2E,6E)-3,7,11-trimethyldodeca-2,6,10-trien-1-yl)oxy)-2,5-dihydro-3H-imidazo[2,1-a]isoindole] | – | 337 | 201 | 30 | –
C=CCOC1(c2ccc(Cl)cc2)c2ccccc2C2=NCCN21 (stereo not shown) [Compound I-3, 5-(allyloxy)-5-(4-chlorophenyl)-2,5-dihydro-3H-imidazo[2,1-a]isoindole] | 88.9 | 73.7 | 52.9 | 30 | 102
O=C(c1ccc(Cl)cc1)c1ccccc1C1=NCCN1C(=O)c1ccc2c(c1)OCO2 [II-4, benzo[d][1.3]dioxol-5-yl(2-(2-(4-chlorobenzoyl)phenyl)-4,5-dihydro-1H-imidazol-1-yl) methanone] | 238 | 236 | 50.3 | 15 | 72
Clc1ccc(C2(OCc3ccccc3)c3ccccc3C3=NCCN32)cc1 (stereo not shown) [Compound I-1, 5-(benzyloxy)-5-(4-chlorophenyl)-2,5-dihydro-3H-imidazo[2,1-a]isoindole] | 141 | 137 | 68.2 | 15 | 96
CC(C)=CCC/C(C)=C/COC1(c2ccc(Cl)cc2)c2ccccc2C2=NCCN21 (stereo not shown) [Compound I-11, (E)-5-(4-chlorophenyl)-5-((3,7-dimethylocta-2,6-dien-1-yl)oxy)-2,5-dihydro-3H-imidazo[2,1-a]isoindole] | 44 | 39.7 | 27.7 | 15 | 69.6
COCCOCCOCCOC1(c2ccc(Cl)cc2)c2ccccc2C2=NCCN21 (stereo not shown) [Compound I-12, 5-(4-chlorophenyl)-5-(2-(2-(2-methoxyethoxy)ethoxy)ethoxy)-2,5-dihydro-3H-imidazo[2,1-a]isoindole] | – | 68.9 | 67.6 | 30 | –
CC(C)C(NC(=O)OC(C)(C)C)C(=O)N1CCN=C1c1ccccc1C(=O)c1ccc(Cl)cc1 (stereo not shown) | – | 56.5 | 61.2 | 15 | –
Clc1ccc(C2(OCc3ccc4c(c3)OCO4)c3ccccc3C3=NCCN32)cc1 (stereo not shown) [Compound I-7, 5-(benzo[d][1.3]dioxol-5-ylmethoxy)-5-(4-chlorophenyl)-2,5-dihydro-3H-imidazo[2,1-a]isoindole] | 358 | 307 | 211 | 15 | 85.2
CC(C)(C(=O)N1CCN=C1c1ccccc1C(=O)c1ccc(Cl)cc1)C(=O)N1CCN=C1c1ccccc1C(=O)c1ccc(Cl)cc1 [III-1, 1,3-bis(2-(2-(4-chlorobenzoyl)phenyl)-4,5-dihydro-1H-imidazol-1-yl)-2,2-dimethylpropane-1,3-dione] | 369 | 366 | 238 | 15 | 72
COc1ccc(COC2(c3ccc(Cl)cc3)c3ccccc3C3=NCCN32)cc1 (stereo not shown) [Compound I-2, 5-(4-chlorophenyl)-5-((4-methoxybenzyl)oxy)-2,5-dihydro-3H-imidazo[2,1-a]isoindole] | 268 | 260 | 234 | 15 | 108
Cc1ccc(C(=O)N2CCN=C2c2ccccc2C(=O)c2ccc(Cl)cc2)cc1 [II-3, (2-(2-(4-chlorobenzoyl)phenyl)-4,5-dihydro-1H-imidazol-1-yl) (p-tolyl) methanone] | 182 | 163 | 81.6 | 15 | 132
CN1CCN(C(=O)N2CCN=C2c2ccccc2C(=O)c2ccc(Cl)cc2)CC1 [II-6, (2-(2-(4-chlorobenzoyl)phenyl)-4,5-dihydro-1H-imidazol-1-yl) (4-methylpiperazin-1-yl) methanone] | 548 | 531 | 752 | 15 | 51
COCCOC1(c2ccc(Cl)cc2)c2ccccc2C2=NCCN21 (stereo not shown) [Compound I-4, 5-(4-chlorophenyl)-5-(2-methoxyethoxy)-2,5-dihydro-3H-imidazo[2,1-a]isoindole] | 586 | 568 | 475 | 15 | 108
COc1ccc(C(=O)N2CCN=C2c2ccccc2C(=O)c2ccc(Cl)cc2)cc1 [II-2, (2-(2-(4-chlorobenzoyl)phenyl)-4,5-dihydro-1H-imidazol-1-yl) (4-methoxyphenyl) methanone] | 624 | 611 | 170 | 30 | 81.6
COC1(c2ccc(Cl)cc2)c2ccccc2C2=NCCN21 (stereo not shown) [Compound I-6, 5-(4-chlorophenyl)-5-methoxy-2,5-dihydro-3H-imidazo[2,1-a]isoindole] | 66.6 | 64.7 | 72 | 30 | 51
O=C(c1ccc(Cl)cc1)c1ccccc1C1=NCCN1C(=O)c1ccccc1 [II-1, (2-(1-benzoyl-4,5-dihydro-1H-imidazol-2-yl)phenyl) (4-chlorophenyl) methanone] | 21.8 | 19.8 | 43 | 15 | 100
CC(C)=CCOC1(c2ccc(Cl)cc2)c2ccccc2C2=NCCN21 (stereo not shown) [Compound I-9, 5-(4-chlorophenyl)-5-((3-methylbut-2-en-1-yl)oxy)-2,5-dihydro-3H-imidazo[2,1-a]isoindole] | 59.8 | 55.1 | 124 | 15 | 85.2
CC(C)COC1(c2ccc(Cl)cc2)c2ccccc2C2=NCCN21 (stereo not shown) [Compound I-10, 5-(4-chlorophenyl)-5-isobutoxy-2,5-dihydro-3H-imidazo[2,1-a]isoindole] | 112 | 94.6 | 82.5 | 15 | 97.8

Assay: as above
Format: in vivo
Conditions: mouse, serum, Table 7: CD-1 mice, nominal dose 5.10 mg/kg Cmpd. A or 6.57-8.40 mg/kg DV salt, analyte: dosed derivative (DV)

Compound | AUC(0-t) [ng·h/mL] | Cmax [ng/mL] | Tmax [min] | AUC(0-inf) [ng·h/mL] | half-life [min]
Clc1ccc(C2(OCC3OCCO3)c3ccccc3C3=NCCN32)cc1 (stereo not shown) [Compound I-19, 5-((1,3-dioxolan-2-yl)methoxy)-5-(4-chlorophenyl)-2,5-dihydro-3H-imidazo[2,1-a]isoindole] | 2.04 | 4.27 | 20 | – | –
FC(F)(F)c1ccc(/C=C/COC2(c3ccc(Cl)cc3)c3ccccc3C3=NCCN32)cc1 (stereo not shown) [Compound I-18, (E)-5-(4-chlorophenyl)-5-((3-(4-(trifluoromethyl)phenyl)allyl)oxy)-2,5-dihydro-3H-imidazo[2,1-a]isoindole] | 677 | 187 | 30 | 792 | 237
